Results as given in the supplement of paper PMC10307832.

Assays:
Assay in all cases: relative viability (nuclei count vs DMSO), 5 days (fraction); higher = more cells survive
NCI-H1944 = test system: NCI-H1944
Procedure, shortened: (§1)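 A single step with final 0.05% Triton X-100, 1% formaldehyde and 1 ug/ml Hoechst fixed the cells and stained nuclei 5 days after treatment. Lung cancer cell lines in 1536-well plates had been treated by pin tool the day after seeding with one drug alone or a fixed anchor-drug dose plus five library-drug doses (not always all listed) in √10 steps, and nuclei were counted on 4× images. Relative viability is the ratio of nuclei in treated wells to nuclei in vehicle wells, taken as the median of duplicate plates.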

NCI-H596 = test system: NCI-H596
Procedure, shortened: as §1

NCI-H650 = test system: NCI-H650
Procedure, shortened: as §1

NCI-H1666 = test system: NCI-H1666
Procedure, shortened: as §1

SK-MES-1 = test system: SK-MES-1
Procedure, shortened: as §1

LK-2 = test system: LK-2
Procedure, shortened: as §1

HCC-78 = test system: HCC-78
Procedure, shortened: as §1

NCI-H838 = test system: NCI-H838
Procedure, shortened: as §1

NCI-H1355 = test system: NCI-H1355
Procedure, shortened: as §1

NCI-H1975 = test system: NCI-H1975
Procedure, shortened: as §1

LU99A = test system: LU99A
Procedure, shortened: as §1

NCI-H358 = test system: NCI-H358
Procedure, shortened: as §1

LXF-289 = test system: LXF-289
Procedure, shortened: as §1

PC-3 [JPC-3] = test system: PC-3 [JPC-3]
Procedure, shortened: as §1

BEN = test system: BEN
Procedure, shortened: as §1

LCLC-97TM1 = test system: LCLC-97TM1
Procedure, shortened: as §1

NCI-H1651 = test system: NCI-H1651
Procedure, shortened: as §1

LC-2-ad = test system: LC-2-ad
Procedure, shortened: as §1

NCI-H2087 = test system: NCI-H2087
Procedure, shortened: as §1

NCI-H661 = test system: NCI-H661
Procedure, shortened: as §1

## O=c1cc(N2CCOCC2)oc2c(-c3cccc4c3sc3ccccc34)cccc12 + CS(=O)(=O)CCNCc1ccc(-c2ccc3ncnc(Nc4ccc(OCc5cccc(F)c5)c(Cl)c4)c3c2)o1 [Lapatinib] (partner 2 µM)
NCI-H1944; first compound 0.01 µM
  relative viability: 0.842
NCI-H1944; first compound 0.03162 µM
  relative viability: 0.817
NCI-H1944; first compound 0.1 µM
  relative viability: 1.04
NCI-H1944; first compound 0.3162 µM
  relative viability: 1.01
NCI-H1944; first compound 1 µM
  relative viability: 0.775
NCI-H596; first compound 0.01 µM
  relative viability: 1.11
NCI-H596; first compound 0.03162 µM
  relative viability: 1.16
NCI-H596; first compound 0.1 µM
  relative viability: 1.06
NCI-H596; first compound 0.3162 µM
  relative viability: 1.16
NCI-H596; first compound 1 µM
  relative viability: 1.16
NCI-H650; first compound 0.01 µM
  relative viability: 0.769
NCI-H650; first compound 0.03162 µM
  relative viability: 0.973
NCI-H650; first compound 0.3162 µM
  relative viability: 1.17
NCI-H650; first compound 1 µM
  relative viability: 0.77
NCI-H1666; first compound 0.01 µM
  relative viability: 0.555
NCI-H1666; first compound 0.03162 µM
  relative viability: 0.735
NCI-H1666; first compound 0.1 µM
  relative viability: 0.715
NCI-H1666; first compound 0.3162 µM
  relative viability: 0.614
NCI-H1666; first compound 1 µM
  relative viability: 0.591
SK-MES-1; first compound 0.01 µM
  relative viability: 0.51
SK-MES-1; first compound 0.03162 µM
  relative viability: 0.53
SK-MES-1; first compound 0.1 µM
  relative viability: 0.487
SK-MES-1; first compound 0.3162 µM
  relative viability: 0.453
SK-MES-1; first compound 1 µM
  relative viability: 0.407
LK-2; first compound 0.01 µM
  relative viability: 0.832
LK-2; first compound 0.03162 µM
  relative viability: 0.986
LK-2; first compound 0.1 µM
  relative viability: 1.12
LK-2; first compound 0.3162 µM
  relative viability: 0.909
LK-2; first compound 1 µM
  relative viability: 1.07
HCC-78; first compound 0.01 µM
  relative viability: 1.03
HCC-78; first compound 0.03162 µM
  relative viability: 0.856
HCC-78; first compound 0.1 µM
  relative viability: 0.785
HCC-78; first compound 0.3162 µM
  relative viability: 0.785
HCC-78; first compound 1 µM
  relative viability: 0.652
NCI-H838; first compound 0.01 µM
  relative viability: 1.08
NCI-H838; first compound 0.03162 µM
  relative viability: 0.915
NCI-H838; first compound 0.1 µM
  relative viability: 0.984
NCI-H838; first compound 0.3162 µM
  relative viability: 0.97
NCI-H838; first compound 1 µM
  relative viability: 0.969
NCI-H1355; first compound 0.01 µM
  relative viability: 0.998
NCI-H1355; first compound 0.03162 µM
  relative viability: 1
NCI-H1355; first compound 0.3162 µM
  relative viability: 1.03
NCI-H1355; first compound 1 µM
  relative viability: 0.963
NCI-H1975; first compound 0.01 µM
  relative viability: 0.856
NCI-H1975; first compound 0.03162 µM
  relative viability: 0.84
NCI-H1975; first compound 0.1 µM
  relative viability: 0.848
NCI-H1975; first compound 0.3162 µM
  relative viability: 0.849
NCI-H1975; first compound 1 µM
  relative viability: 0.826
LU99A; first compound 0.01 µM
  relative viability: 1.11
LU99A; first compound 0.03162 µM
  relative viability: 1.04
LU99A; first compound 0.1 µM
  relative viability: 0.921
LU99A; first compound 0.3162 µM
  relative viability: 1.02
LU99A; first compound 1 µM
  relative viability: 1.07
NCI-H358; first compound 0.01 µM
  relative viability: 0.515
NCI-H358; first compound 0.03162 µM
  relative viability: 0.478
NCI-H358; first compound 0.1 µM
  relative viability: 0.482
NCI-H358; first compound 0.3162 µM
  relative viability: 0.467
NCI-H358; first compound 1 µM
  relative viability: 0.433
LXF-289; first compound 0.01 µM
  relative viability: 0.872
LXF-289; first compound 0.03162 µM
  relative viability: 0.881
LXF-289; first compound 0.1 µM
  relative viability: 0.89
LXF-289; first compound 0.3162 µM
  relative viability: 0.897
LXF-289; first compound 1 µM
  relative viability: 0.946
PC-3 [JPC-3]; first compound 0.01 µM
  relative viability: 0.492
PC-3 [JPC-3]; first compound 0.03162 µM
  relative viability: 0.435
PC-3 [JPC-3]; first compound 0.1 µM
  relative viability: 0.462
PC-3 [JPC-3]; first compound 0.3162 µM
  relative viability: 0.421
PC-3 [JPC-3]; first compound 1 µM
  relative viability: 0.423
BEN; first compound 0.01 µM
  relative viability: 0.662
BEN; first compound 0.03162 µM
  relative viability: 0.843
BEN; first compound 0.1 µM
  relative viability: 0.69
BEN; first compound 0.3162 µM
  relative viability: 0.735
BEN; first compound 1 µM
  relative viability: 0.67
LCLC-97TM1; first compound 0.01 µM
  relative viability: 1.09
LCLC-97TM1; first compound 0.03162 µM
  relative viability: 1.57
LCLC-97TM1; first compound 0.3162 µM
  relative viability: 1.13
LCLC-97TM1; first compound 1 µM
  relative viability: 0.727
NCI-H1651; first compound 0.01 µM
  relative viability: 0.746
NCI-H1651; first compound 0.03162 µM
  relative viability: 0.909
NCI-H1651; first compound 0.1 µM
  relative viability: 0.875
NCI-H1651; first compound 0.3162 µM
  relative viability: 0.741
NCI-H1651; first compound 1 µM
  relative viability: 0.878
LC-2-ad; first compound 0.01 µM
  relative viability: 1.06
LC-2-ad; first compound 0.1 µM
  relative viability: 1.03
LC-2-ad; first compound 0.3162 µM
  relative viability: 0.898
LC-2-ad; first compound 1 µM
  relative viability: 1.02
NCI-H2087; first compound 0.01 µM
  relative viability: 0.847
NCI-H2087; first compound 0.03162 µM
  relative viability: 1.11
NCI-H2087; first compound 0.1 µM
  relative viability: 1.2
NCI-H2087; first compound 0.3162 µM
  relative viability: 0.938
NCI-H2087; first compound 1 µM
  relative viability: 1.17
NCI-H661; first compound 0.01 µM
  relative viability: 0.487
NCI-H661; first compound 0.03162 µM
  relative viability: 0.531
NCI-H661; first compound 0.1 µM
  relative viability: 0.603
NCI-H661; first compound 0.3162 µM
  relative viability: 0.473
NCI-H661; first compound 1 µM
  relative viability: 0.522
